Measurements as given in patent US8298328B2, “Amorphous metal salt for facilitating the handling property of portland cements and dental applications thereof” (Taipei Medical University, priority 2008, dated 2012).

What was measured:
[1] = Crystal form by wide-angle X-ray diffraction (XRD); type: physicochemical; details: XRD of powder
Procedure: The crystal form of the CLG powder prepared above is determined by wide-angle x-ray diffraction (XRD). First, 1.00 g of CLG powder was placed in a sample carrier, and the powder filling was pressed by a slide. Then, the sample was placed on an X-ray diffractometer (MaxRC, Rigaku, Japan), and X-ray diffraction was performed by using Kα radiation (λ=1.541838A) at scan rate of 10°/min and 20 scanning angle from 5° to 60°. The peaks of X-ray diffraction data were analyzed in accordance with the Joint Committee on Powder Diffraction Standards (JCPDS).

[2] = filtrate after reaction with CaO, before drying
Procedure: After mixing and stirring for 1 hour, the solution was filtered, and the filtrate was collected.

[3] = Water solubility of the divalent metal salt powder; details: 25° C., dried powder

Compound	Crystal form [1]	pH value of the filtrate solution [2]	Solubility (water solubility) [3]	other results
Calcium Lactate Sulfate [Example 2]	Amorphous	9.7	–	Crystal form ([1]; listed as CLS): amorphous
O.O.O=S(=O)([O-])[O-].[Ca+2] [Comparative Example 1, Calcium Sulfate Dehydrate, reference compound]	Crystalline	–	–	–
Calcium Gluconate [Comparative Example 2, reference compound]	Crystalline	–	–	Crystal form ([1]; listed as CG): crystalline
CC(O)C(=O)[O-].CC(O)C(=O)[O-].[Ca+2] (stereo not drawn) [Comparative Example 3, Calcium Lactate, reference compound]	Crystalline	–	–	Crystal form ([1]; listed as CL): crystalline
CC(O)C(=O)[O-].O=C([O-])[C@H](O)[C@@H](O)[C@H](O)[C@H](O)CO.[Ca+2] [Example 1, Calcium Lactate Gluconate]	Amorphous	9.8	35.7~41.0 g/100 ml	Solubility (water solubility) ([3]; listed as CLG): 35.7˜41.0 g/100 ml; Crystal form ([1]; listed as CLG): amorphous
O=C([O-])[C@H](O)[C@@H](O)[C@H](O)[C@H](O)CO.O=S(=O)([O-])O.[Ca+2] [Example 3, Calcium Sulfate Gluconate]	Amorphous	9.3	30.1~31.7 g/100 ml	Solubility (water solubility) ([3]; listed as CSG): 30.1˜31.7 g/100 ml; Crystal form ([1]; listed as CSG): amorphous
